According to PubChem BioAssay (NCI):
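Cultured in 96-well plates, cells were exposed to test compound for 48 hours across five concentrations. Here, GI50 denotes the concentration required for 50% inhibition of growth. At the TGI there is no net growth.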

Legend:
Assay in all cases: DTP human tumour cell line panel, 48 h
LOX IMVI melanoma = test system: LOX IMVI melanoma
SNB-75 CNS = test system: SNB-75 CNS
T-47D breast = test system: T-47D breast
NCI/ADR-RES ovarian = test system: NCI/ADR-RES ovarian
786-0 renal = test system: 786-0 renal
KM12 colon = test system: KM12 colon
OVCAR-5 ovarian = test system: OVCAR-5 ovarian
HCC-2998 colon = test system: HCC-2998 colon
EKVX NSCLC = test system: EKVX NSCLC
RXF 393 renal = test system: RXF 393 renal

Structure (SMILES) | GI50 (LOX IMVI melanoma) [µM] | TGI (LOX IMVI melanoma) [µM] | GI50 (SNB-75 CNS) [µM] | TGI (SNB-75 CNS) [µM] | GI50 (T-47D breast) [µM] | TGI (T-47D breast) [µM] | GI50 (NCI/ADR-RES ovarian) [µM] | TGI (NCI/ADR-RES ovarian) [µM] | GI50 (786-0 renal) [µM] | TGI (786-0 renal) [µM] | GI50 (KM12 colon) [µM] | TGI (KM12 colon) [µM] | GI50 (OVCAR-5 ovarian) [µM] | TGI (OVCAR-5 ovarian) [µM] | GI50 (HCC-2998 colon) [µM] | TGI (HCC-2998 colon) [µM] | TGI (EKVX NSCLC) [µM] | TGI (RXF 393 renal) [µM] | GI50 (EKVX NSCLC) [µM] | GI50 (RXF 393 renal) [µM]
O=C(Nc1cccc(-n2cc(-c3ccncc3)c(-c3ccc(O)c(Cl)c3)n2)c1)c1ccc(Cl)c(Cl)c1 | 7.21 | > 100 | 0.977 | 18.4 | 5.36 | > 100 | 5.26 | 65.5 | 5.49 | 94.3 | 5.44 | > 100 | 39.5 | > 100 | 40.6 | > 100 |  |  |  | 
CCN(CC)CCC(=O)/C=C/c1ccc(C)cc1 |  | 14.6 |  | 30.9 |  |  |  |  |  | 24.7 |  | 7.98 |  | 32.6 |  | 32.6 | 32.4 | 29.2 |  | 
CCN(CC)c1ccc(/C=C/C=C(/C#N)C(N)=S)cc1 | 4.71 | 28.3 | 20.4 | > 100 | 2.96 | > 100 | 3.85 | > 100 | 2.76 | 8.69 | 9.6 | > 100 | 4.83 | > 100 | 6.46 | > 100 | > 100 |  | 6.5 | 
Cc1cn2c(/C=N/N=C(N)N)c(-c3ccsc3)nc2s1 | 1.6 | 3.35 |  |  | 2.7 | 7.86 | 22.5 | 51.5 | 5.89 | 19.7 | 6.6 | 29.9 | 15.1 | 28.7 | 2.34 | 5.33 | 27.4 | 33.5 | 13.8 | 17.3
COc1ccc(C#CC2=C(c3cc(OC)c(OC)c(OC)c3)C(=O)OC2)cc1 |  |  | 1.33 | > 50 |  |  | 5.82 | 27.9 | 4.94 | > 50 | 1.63 | 27.4 | > 50 | > 50 |  |  | 41.8 | 26.7 | 13.7 | 6.77
C#CC(=O)OCC#CCOC(=O)C#C |  | 2.63 |  |  |  | 60.2 |  | 76.5 |  | 31.4 |  | 44 |  |  |  | 39.6 | 29.9 | 36.9 |  | 
Cc1ccc(NC(=O)/C(=N\NC(N)=O)c2c(O)c3ccccc3[nH]c2=O)cc1 |  | > 100 |  | > 100 |  | > 100 |  | > 100 |  | > 100 |  | > 100 |  | > 100 |  | > 100 |  | > 100 |  | 
O=C1CCC2(c3ccccc3)Nc3ccc(Cl)cc3N12 (stereo not given) |  | > 100 |  | > 100 |  |  |  |  |  | > 100 |  | > 100 |  | > 100 |  | > 100 | > 100 | > 100 |  | 
O=C(NC(=O)c1cc2cc(Br)cc(Br)c2oc1=O)Oc1ccccc1 |  | > 100 |  | 33.6 |  |  |  |  |  | > 100 |  | > 100 |  | > 100 |  | > 100 | > 100 | 83.3 |  | 
Cn1c(C(C)(C)OC(=O)Oc2ccccc2)cnc1[N+](=O)[O-] |  |  |  | > 100 |  | > 100 |  | > 100 |  | > 100 |  | > 100 |  | > 100 |  |  | > 100 | > 100 |  | 
